Where two headings read alike, the source gives them in different places.
What was measured:
[1] = molecular target: T1, Aurora A (Homo sapiens, UniProt O14965); assay: Aurora A kinase activity assay (Kemptide substrate, Kinase-Glo residual ATP); type: biochemical; details: recombinant Aurora A 10 nM, ATP 1 μM, Kemptide 100 μM, 30° C. 1 hour
T1 construct: purchased Upstate
T1 sequence (O14965 1-403): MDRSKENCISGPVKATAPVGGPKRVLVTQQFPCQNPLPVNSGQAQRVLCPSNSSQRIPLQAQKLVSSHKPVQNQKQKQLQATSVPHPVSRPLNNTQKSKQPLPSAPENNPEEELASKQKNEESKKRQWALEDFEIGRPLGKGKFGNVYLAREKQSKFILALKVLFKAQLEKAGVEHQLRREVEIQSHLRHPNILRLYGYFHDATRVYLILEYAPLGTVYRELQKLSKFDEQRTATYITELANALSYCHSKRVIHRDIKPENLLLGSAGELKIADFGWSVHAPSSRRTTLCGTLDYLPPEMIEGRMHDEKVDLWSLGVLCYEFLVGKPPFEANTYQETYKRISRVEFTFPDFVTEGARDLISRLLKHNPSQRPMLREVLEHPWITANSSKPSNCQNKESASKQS
Protocol: Further, the test compounds and comparative compound were successively diluted with dimethyl sulfoxide (DMSO) from an initial concentration of 12.5 mM to obtain test solutions and DMSO was used as a control solution. Less than 5% of each test solution or control solution was added to a reaction solution containing 20 mM HEPES (pH 7.5), 5 mM MgCl2, 0.5 mM EGTA, 200 mM KCl, 1 mM DTT and 0.05% triton X-100, and 100 μM of Kemptide peptide (PEPTRON), which is a substrate of aurora kinase, 1 μM of ATP and 10 nM of Aurora A (Upstate), which is a recombinant aurora kinase, were added thereto, followed by reacting each mixture at 30° C. for 1 hour. 25 μl of each reacted solution was mixed with 25 μl of Kinase-Glo™ (promega), and reacted at room temperature for 10 minutes, and the amount of residual ATP therein was measured using Fusion a-FP (Packard). Enzymic activity in each reacted solution was analyzed based on the measured value, and IC50 (μM) was determined as a concentration of the test compound required to inhibit the kinase activity by 50% relatively to the control solution, and the results are shown in Table 2.

[2] = tested on: human colon carcinoma cell line, HCT116; assay: Cancer cell proliferation, SRB assay; type: cell-based; details: HCT116, 48 hours, concentration inhibiting cancer cell proliferation by 50%
Protocol: (§1) In order to examine the suppressive effect of the inventive aminopyrimidine derivatives on the proliferation of cancer cells through inhibiting the protein kinase activity, a test was performed as follows by employing human colon carcinoma cell line, HCT116 (Korean Cell Line Bank, KCLB10247) and human fetal cell line, MRC-5 (Korean Cell Line Bank, KCLB10171).
(§2) HCT116 and MRC-5 cells were plated into the wells of a 96-well plate containing DMEM (Dulbecco's Modified Eagle Medium) medium at a concentration ranging from 1×10^3 to 3×10^3 cells/well, and cultured under conditions of 5% CO2 and 37° C. for 24 hours. Then, the test compounds of Examples 85 to 88, 97 to 99, 105 to 110 and 115 to 118, and a comparative compound, N-(4-(4-(5-methyl-1H-pyrrole-3-yl-amino)-6-(4-methylpiperazin-1-yl)-1,3,5-triazin-2-ylthio) cyclopropane carboxyamide were added thereto in an amount of 0.2, 1, 5, 25 and 100 μM, respectively. The control was not treated with any compound. The cells were cultured for 48 hours.
(§3) After removing the medium from each wells, the cells were washed about 3 times with phosphate-buffered saline (PBS, pH 7.4), followed by fixing with 50% TCA (trichloroacetic acid) refrigerant solution in an amount of 50 μl/well at 4° C. for 1 hour. The fixed cells were washed 5 times with distilled water and dried in the air, and stained with 50 μl/well of 1% acetic acid containing 0.4% SRB (sulforhodamine B) solution at room temperature for 1 hour. The stained cells were washed 5 times with 1% acetic acid and dried in the air, 150 μl/well of 10 mM Tris-HCl (pH 10.5) were added thereto, and the absorbance of each well was measured at 540 nm. The suppressive value of each compound for cell proliferation was calculated based on the absorbance of the control well, and the results are shown in Table 2. In Table 2, EC50 (μM) was determined as a concentration of the test compound required to inhibit cancer cell proliferation by 50% relative to the control, CC50 (μM) was determined as a concentration of the test compound required to inhibit normal cell proliferation by 50% relative to the control, and the therapeutic index was determined as the value of CC50(μM)/EC50(μM).

[3] = Normal cell proliferation, SRB assay; type: cell-based, human; details: human, CC50(μM)
Protocol: as §1, §2, §3

[4] = tested on: human fetal cell line, MRC-5; assay: Normal cell proliferation, SRB assay; type: cell-based
Protocol: as §1, §2, §3

IC50 [1] [µM] | EC50 ([2]; Homo sapiens, HCT-116, 48 h) [µM] | EC50 [2] [µM] | Compound | CC50 at 48 h [3] [µM] | CC50 ([4]; human, 48 h) [µM] | CC50 [4] [µM] | CC50 ([4]; MRC-5, 48 hours, concentration inhibiting normal cell proliferation by 50%, read-out: CC50) [µM]
0.088 | 1.2 | – | CN(C)CCNc1ccc(Nc2nccc(C(=O)NC3CC4CCC3(C)C4(C)C)n2)cc1 (stereo not drawn) [Compound 86] | > 100 | – | – | –
0.01 | 0.8 | – | CC1(C)C2CCC1(C)C(NC(=O)c1ccnc(Nc3ccc(NCCN4CCCC4)cc3)n1)C2 (stereo not drawn) [Compound 88, 2-(4-(2-(pyrrolidine-1-yl)ethylamino)phenyl-amino)-N-(1,7,7-trimethylbicyclo[2.2.1]heptane-2-yl)pyrimidine-carboxamide] | 24.5 | – | – | –
0.05 | 3.1 | – | CC1(C)C2CCC1(C)C(NC(=O)c1ccnc(Nc3cccc(NCCCN4CCOCC4)c3)n1)C2 (stereo not drawn) [Compound 97, 2-(3-(3-morpholinopropylamino)phenylamino)-N-(1,7,7-trimethylbicyclo[2.2.1]hep-tan-2-yl)pyrimidine-4-carboxyamide] | > 100 | – | – | –
0.039 | – | 3.2 | CC1(C)C2CCC1(C)C(NC(=O)c1ccnc(Nc3cccc(NCCCN4CCOCC4)c3)n1)C2 (stereo not drawn) [Compound 98, 2-(3-(3-morpholinopropylamino)phenylamino)-N-(1,7,7-trimethylbicyclo[2.2.1]hep-tan-2-yl)pyrimidine-4-carboxyamide] | – | 52.6 | – | –
0.023 | 2 | – | COc1ccc(Nc2nccc(C(=O)NC3CC4CCC3(C)C4(C)C)n2)cc1OCCN1CCOCC1 (stereo not drawn) [Compound 99, 2-(4-methoxy-3-(2-morpholinoethoxy)phenyl-amino)-N-(1,7,7-trimethylbicyclo[2.2.1]hep-tan-2-yl)pyrimidine-4-carboxyamide] | 52 | – | – | –
0.017 | 0.5 | – | CCN1CCN(c2ccc(Nc3nccc(C(=O)NC4CC5CCC4(C)C5(C)C)n3)cc2)CC1 (stereo not drawn) [Compound 105, 2-(4-(4-ethylpiperazin-1-yl)phenylamino)-N-(1,7,7-trimethylbicyclo[2.2.1]hep-tan-2-yl)pyrimidine-4-carboxyamide] | > 100 | – | – | –
0.011 | – | 0.9 | CCN(CC)CCOc1cc(Nc2nccc(C(=O)NC3CC4CCC3(C)C4(C)C)n2)ccc1OC (stereo not drawn) [Compound 106, 2-(3-(2-(diethylamino)ethoxy)-4-methoxyphenylamino)-N-(1,7,7-trimethylbicyclo[2.2.1]hep-tan-2-yl)pyrimidine-4-carboxyamide] | – | – | 33 | –
0.018 | 1.2 | – | COc1ccc(Nc2nccc(C(=O)NC3CC4CCC3(C)C4(C)C)n2)cc1OCCN1CCCC1 (stereo not drawn) [Compound 107, 2-(4-methoxy-3-(2-(pyrrolidin-1-yl)ethoxy)phenylamino)-N-(1,7,7-trimethylbicyclo[2.2.1]hep-tan-2-yl)pyrimidine-4-carboxyamide] | 46 | – | – | –
0.01 | 1.9 | – | CC1(C)C2CCC1(C)C(NC(=O)c1ccnc(Nc3ccc(N4CCN(CCO)CC4)cc3)n1)C2 (stereo not drawn) [Compound 108, 2-(4-(4-(2-hydroxyethyl)piperazin-1-yl)phenylamino)-N-(1,7,7-trimethylbicyclo[2.2.1]hep-tan-2-yl)pyrimidine-4-carboxyamide] | 56 | – | – | –
0.02 | 2.8 | – | CC(C)N1CCN(c2ccc(Nc3nccc(C(=O)NC4CC5CCC4(C)C5(C)C)n3)cc2)CC1 (stereo not drawn) [Compound 109, 2-(4-(4-isopropylpiperazin-1-yl)phenylamino)-N-(1,7,7-trimethylbicyclo[2.2.1]hep-tan-2-yl)pyrimidine-4-carboxyamide] | 23.5 | – | – | –
0.02 | 1.9 | – | CCCN1CCN(c2ccc(Nc3nccc(C(=O)NC4CC5CCC4(C)C5(C)C)n3)cc2)CC1 (stereo not drawn) [Compound 110, 2-(4-(4-propylpiperazin-1-yl)phenylamino)-N-(1,7,7-trimethylbicyclo[2.2.1]hep-tan-2-yl)pyrimidine-4-carboxyamide] | 32 | – | – | –
0.093 | 3.1 | – | CC(C)CN1CCN(c2ccc(Nc3nccc(C(=O)NC4CC5CCC4(C)C5(C)C)n3)cc2)CC1 (stereo not drawn) [Compound 115, 2-(4-(4-isobutylpiperazin-1-yl)phenylamino)-N-(1,7,7-trimethylbicyclo-[2.2.1]heptan-2-yl)pyrimidine-4-carboxyamide] | 100 | – | – | –
0.012 | 1.7 | – | CC1(C)C2CCC1(C)C(NC(=O)c1ccnc(Nc3ccc(N4CCN(CC#N)CC4)cc3)n1)C2 (stereo not drawn) [Compound 116, 2-(4-(4-(cianomethyl)piperazin-1-yl)phenylamino)-N-(1,7,7-trimethylbicyclo [2.2.1]heptan-2-yl)pyrimidine-4-carboxyamide] | 26.6 | – | – | –
0.019 | 2.8 | – | CC1(C)C2CCC1(C)C(NC(=O)c1ccnc(Nc3cccc(NCC#N)c3)n1)C2 (stereo not drawn) [Compound 118, 2-(3-(cianomethylamino)phenylami-no)-N-(1,7,7-trimethylbicyclo-[2.2.1]heptane-2-yl)pyrimidine-4-carboxyamide] | 62.5 | – | – | –

Compound | IC50 [1] [µM] | EC50 ([2]; Homo sapiens, HCT-116, 48 h) [µM] | EC50 [2] [µM] | CC50 at 48 h [3] [µM] | CC50 ([4]; human, 48 h) [µM] | CC50 [4] [µM] | CC50 ([4]; MRC-5, 48 hours, concentration inhibiting normal cell proliferation by 50%, read-out: CC50) [µM]
CC1(C)C2CCC1(C)C(NC(=O)c1ccnc(Nc3ccc(N4CCCCC4)cc3)n1)C2 (stereo not drawn) [Compound 85, 2-(4-(piperidine-1-yl)phenylamino)-N-(1,7,7-trimethylbicyclo[2.2.1]heptane-2-yl)pyrimidine-4-carboxyamide] | 0.033 | 1.6 | – | 38 | – | – | –
N-(4-(4-(5-methyl-1H-pyrrole-3-yl-amino)-6-(4-methylpiperazin-1-yl)-1,3,5-triazin-2-ylthio) cyclopropane carboxyamide [Comparative compound, reference compound] | 0.019 | – | 3 | – | – | – | 33

From patent US20090227612A1, “Aminopyrimidine Derivatives Inhibiting Protein Kinase Activity, Method For The Preparation Thereof And Pharmaceutical Composition Containing Same” (priority 2005, published 2009)
